Tested on: Jurkat cells
Test: (r) Cell cytotoxicity assay
Type: cell-based, human
Details: 24 hours
Description: 1×10^5 Jurkat cells (immortalised human T lymphocytes) are added to the appropriate number of wells of a 96 well plate in 100 μL of media (RPMI supplemented with 10% foetal bovine serum). 1 μL of DMSO control (final concentration 1.0% v/v) or test compound (final concentration 20, 5 or 1 μg/mL) is added to the wells and incubated at 37° C., 5% CO2. After 24 hours, the plate is centrifuged at 1200 rpm for 3 minutes and the supernatant discarded. Cells are then resuspended in 150 μL (final concentration 7.5 μg/mL) of propidium iodide (PI) in PBS and incubated at 37° C., 5% CO2 for 15 minutes. After 15 minutes, cells are analysed by flow cytometry (BD accuri) using the FL3 window. The % viability is calculated as the % of cells that are PI negative in the test wells normalised to the DMSO control.

Compound | % Viability at 1 μg/mL [%] | % Viability at 5 μg/mL [%] | % Viability at 20 μg/mL [%]
COc1cc(Nc2cc(Oc3ccc(NC(=O)Nc4cc(C(C)(C)C)cc(NS(C)(=O)=O)c4OC)c4ccccc34)ccn2)ccc1C(=O)NCCN1CCN(C(=O)CCC(=O)O)CC1 [17(ck), 4-(4-(2-(4-((4-((4-(3-(5-(tert-Butyl)-2-methoxy-3-(methylsulfonamido)phenyl)ureido)-naphthalen-1-yl)oxy)pyridin-2-yl)amino)-2-methoxybenzamido)ethyl)piperazin-1-yl)-4-oxobutanoic acid] | 96.1 | 96.1 | 95.5
COc1cc(Nc2cc(Oc3ccc(NC(=O)Nc4cc(C(C)(C)C)cc(NS(C)(=O)=O)c4OC)c4ccccc34)ccn2)ccc1C(=O)NCCN1CCN(C)CC1(C)C [17(bi), 4-((4-((4-(3-(5-(tert-Butyl)-2-methoxy-3-(methylsulfonamido)phenyl)ureido)naphthalen-1-yl)oxy)pyridin-2-yl)amino)-2-methoxy-N-(2-(2,2,4-trimethylpiperazin-1-yl)ethyl)benzamide] | 97.4 | 0.8 | 0.6
COc1cc(Nc2cc(Oc3ccc(NC(=O)Nc4cc(NS(C)(=O)=O)cc(C(C)(C)C)c4)c4ccccc34)ccn2)ccc1C(=O)NCCC1CCN(C)CC1 [17(bs), 4-((4-((4-(3-(3-(tert-Butyl)-5-(methylsulfonamido)phenyl)ureido)naphthalen-1-yl)oxy)pyridin-2-yl)amino)-2-methoxy-N-(2-(1-methylpiperidin-4-yl)ethyl)benzamide] | 90.9 | 48.7 | 0.3
COc1cc(Nc2cc(Oc3ccc(NC(=O)Nc4cc(C(C)(C)C)cc(NS(C)(=O)=O)c4OC)c4ccccc34)ccn2)ccc1C(=O)NCCN1CCN(C(=O)CC[C@H](N)C(=O)O)CC1 [17(cl), (S)-2-Amino-5-(4-(2-(4-((4-((4-(3-(5-(tert-butyl)-2-methoxy-3-(methylsulfonamido)-phenyl)ureido)naphthalen-1-yl)oxy)pyridin-2-yl)amino)-2-methoxybenzamido)ethyl)piperazin-1-yl)-5-oxopentanoic acid] | 93.6 | 94.0 | 93.7
COc1cc(Nc2cc(Oc3ccc(NC(=O)Nc4cc(C(C)(C)C)cc(NS(C)(=O)=O)c4OC)c4ccccc34)ccn2)cc(OC)c1C(=O)N1CCN(CCN(C)C)CC1 [17(cg), N-(5-(tert-Butyl)-3-(3-(4-((2-((4-(4-(2-(dimethylamino)ethyl)piperazine-1-carbonyl)-3,5-dimethoxyphenyl)amino)pyridin-4-yl)oxy)naphthalen-1-yl)ureido)-2-methoxyphenyl)methane sulfonamide] | 96.1 | 95.3 | 92.3
COc1cc(Nc2cc(Oc3ccc(NC(=O)Nc4cc(C(C)(C)C)cc(C(=O)NCCO)c4OC)c4ccccc34)ccn2)ccc1C(=O)NCCN1CC[S+]([O-])CC1 [Example 32, 5-(tert-Butyl)-N-(2-hydroxyethyl)-2-methoxy-3-(3-(4-((2-((3-methoxy-4-((2-(1-oxidothiomorpholino)ethyl)carbamoyl)phenyl)amino)pyridin-4-yl)oxy)naphthalen-1-yl)ureido)benzamide] | 95.4 | 43.1 | 2.5
COc1cc(Nc2cc(Oc3ccc(NC(=O)Nc4cc(C(C)(C)C)cc(NS(C)(=O)=O)c4OC)c4ccccc34)ccn2)ccc1S(=O)(=O)CCCN1CCN(C)CC1 [17(ch), N-(5-(tert-Butyl)-2-methoxy-3-(3-(4-((2-((3-methoxy-4-((3-(4-methylpiperazin-1-yl)propyl)sulfonyl)phenyl)amino)pyridin-4-yl)oxy)naphthalen-1-yl)ureido)phenyl)methanesulfonamide] | 82.0 | 10.2 | 0.7
COc1cc(Nc2cc(Oc3ccc(NC(=O)Nc4cc(C(C)(C)C)cc(NS(C)(=O)=O)c4OC)c4ccccc34)ccn2)ccc1-n1ccccc1=O [Example 31, N-(5-(tert-Butyl)-2-methoxy-3-(3-(4-((2-((3-methoxy-4-(2-oxopyridin-1 (2H)-yl)phenyl)amino)-pyridin-4-yl)oxy)naphthalen-1-yl)ureido)phenyl)methanesulfonamide] | 99.9 | 97.6 | 99.0
COc1c(NC(=O)Nc2ccc(Oc3ccnc(Nc4ccc(C(=O)NCCN5CCN(C)CC5)c(N(C)C)c4)c3)c3ccccc23)cc(C(C)(C)C)cc1NS(C)(=O)=O [17(bq), 4-((4-((4-(3-(5-(tert-Butyl)-2-methoxy-3-(methylsulfonamido)phenyl)ureido)naphthalen-1-yl)oxy)pyridin-2-yl)amino)-2-(dimethylamino)-N-(2-(4-methylpiperazin-1-yl)ethyl)benzamide] | 87.2 | 55.3 | 2.0
COc1cc(Nc2cc(Oc3ccc(NC(=O)Nc4cc(C(C)(C)C)cc(NS(C)(=O)=O)c4OC)c4ccccc34)ccn2)ccc1C(=O)NCCC1CCNCC1 [Example 27, 4-((4-((4-(3-(5-(tert-Butyl)-2-methoxy-3-(methylsulfonamido)phenyl)ureido)naphthalen-1-yl)oxy)pyridin-2-yl)amino)-2-methoxy-N-(2-(piperidin-4-yl)ethyl)benzamide] | 101.2 | 94.9 | 1.7
COc1cc(Nc2cc(Oc3ccc(NC(=O)Nc4cc(C(C)(C)C)cc(NS(C)(=O)=O)c4OC)c4ccccc34)ccn2)cc(OC)c1C(=O)NCCC1CCN(C)CC1 [17(at), 4-((4-((4-(3-(5-(tert-Butyl)-2-methoxy-3-(methylsulfonamido)phenyl)ureido)naphthalen-1-yl)oxy)pyridin-2-yl)amino)-2,6-dimethoxy-N-(2-(1-methylpiperidin-4-yl)ethyl)benzamide] | 95.2 | 93.2 | 86.6
COc1cc(Nc2nccc(Oc3ccc(NC(=O)Nc4cc(C(C)(C)C)cc(NS(C)(=O)=O)c4OC)c4ccccc34)n2)cc(OC)c1C(=O)NCCN1CCN(C)CC1 [17(az), 4-((4-((4-(3-(5-(tert-Butyl)-2-methoxy-3-(methylsulfonamido)phenyl)ureido)naphthalen-1-yl)oxy)pyrimidin-2-yl)amino)-2,6-dimethoxy-N-(2-(4-methylpiperazin-1-yl)ethyl)benzamide] | 105.4 | 93.1 | 4.5
COc1c(NC(=O)Nc2ccc(Oc3ccnc(Nc4ccc(C(=O)O)c(N(C)C)c4)n3)c3ccccc23)cc(C(C)(C)C)cc1NS(C)(=O)=O [17(bc), 4-((4-((4-(3-(5-(tert-Butyl)-2-methoxy-3-(methylsulfonamido)phenyl)ureido)naphthalen-1-yl)oxy)pyrimidin-2-yl)amino)-2-(dimethylamino)benzoic acid] | 93.9 | 89.2 | 10.8
COc1cc(Nc2cc(Oc3ccc(NC(=O)Nc4cc(C(C)(C)C)cc(NS(C)(=O)=O)c4OC)c4ccccc34)ccn2)ccc1C(=O)NCCC(=O)N1C[C@H](O)[C@@H](O)[C@H](O)[C@H]1CO [17(cf), 4-((4-((4-(3-(5-(tert-Butyl)-2-methoxy-3-(methylsulfonamido)phenyl)ureido)naphthalen-1-yl)oxy)pyridin-2-yl)amino)-2-methoxy-N-(3-oxo-3-((2R,3R,4R,5S)-3,4,5-trihydroxy-2-(hydroxymethyl)piperidin-1-yl)propyl)benzamide] | 96.7 | 96.7 | 96.8
COc1cc(Nc2cc(Oc3ccc(NC(=O)Nc4cc(C(C)(C)C)cc(NS(C)(=O)=O)c4OC)c4ccccc34)ccn2)ccc1C(=O)NC[C@H](O)[C@@H](O)[C@H](O)[C@H](O)CO [17(bw), 4-((4-((4-(3-(5-(tert-Butyl)-2-methoxy-3-(methylsulfonamido)phenyl)ureido)naphthalen-1-yl)oxy)pyridin-2-yl)amino)-2-methoxy-N-((2S,3R,4R,5R)-2,3,4,5,6-pentahydroxyhexyl) benzamide] | 94.5 | 96.2 | 92.4
COc1cc(Nc2cc(Oc3ccc(NC(=O)Nc4cc(C(C)(C)C)cc(NS(C)(=O)=O)c4OC)c4ccccc34)ccn2)ccc1CP(C)(=O)O [Example 70, (4-((4-((4-(3-(5-(tert-Butyl)-2-methoxy-3-(methylsulfonamido)phenyl)ureido)naphthalen-1-yl)oxy)pyridin-2-yl)amino)-2-methoxybenzyl)(methyl)phosphinic acid] | 95.3 | 91.9 | 63.8
COc1cc(Nc2cc(Oc3ccc(NC(=O)Nc4cc(C(C)(C)C)cc(NS(C)(=O)=O)c4OC)c4ccccc34)ccn2)ccc1C(=O)NC[C@@H]1O[C@H](CO)[C@@H](O)[C@H](O)[C@H]1O [17(co), 4-((4-((4-(3-(5-(tert-Butyl)-2-methoxy-3-(methylsulfonamido)phenyl)ureido)naphthalen-1-yl)oxy)pyridin-2-yl)amino)-2-methoxy-N-(((2S,3R,4R,5S,6R)-3,4,5-trihydroxy-6-(hydroxymethyl)tetrahydro-2H-pyran-2-yl)methyl)benzamide] | 94.5 | 93.3 | 92.2

Source: patent publication US10125100B2, “Kinase inhibitors” (Respivert Limited, priority 2014, dated 2018)
